Key:
HCT116 WT cells = test: PRMT5 cell SDMA assay, MTAP WT cells; format: cell-based; conditions: Homo sapiens, HCT-116; HCT116 MTAP WT, 48 hours; read-out: Cell SDMA IC50 (μM) (MTAP WT)
HCT116 KO-MTAP cells = test: PRMT5 cell SDMA assay, MTAP KO cells; format: cell-based; conditions: Homo sapiens, HCT-116; HCT116 MTAP KO, 48 hours; read-out: Cell SDMA IC50 (μM) (MTAP KO)

Compound | IC50 (HCT116 WT cells) [µM] | IC50 (HCT116 KO-MTAP cells) [µM]
C[C@@H](N1CC[C@@]2(C1=O)c1ccc(F)cc1C(=O)N2Cc1cc2nc(N)c(F)cc2[nH]1)C1(C)CC1 (relative stereo) [Example 19, (S)-2-((5-Amino-6-fluoro-1H-pyrrolo[3,2-b]pyridin-2-yl)methyl)-5-fluoro-1′-((R*)-1-(1-methylcyclopropyl)ethyl)spiro[isoindoline-1,3′-pyrrolidine]-2′,3-dione] | 0.86 | 0.032
Nc1nc2cc(CN3C(=O)c4ccncc4[C@]34CCN(Cc3ccc(F)cc3)C4=O)[nH]c2cc1F (single isomer, unassigned) [Example 25] | 0.44 | 0.014
C[C@H]1C[C@@]2(C(=O)N1C)c1ccc(F)cc1C(=O)N2Cc1cc2nc(N)c(F)cc2[nH]1 (single isomer, unassigned) [Example 29] | 0.81 | 0.018
Nc1nc2cc(CN3C(=O)c4cc(F)ccc4[C@]34CCN(Cc3cccc(-n5nccn5)c3)C4=O)[nH]c2cc1F [Example 6, (S)-1′-(3-(2H-1,2,3-Triazol-2-yl)benzyl)-2-((5-amino-6-fluoro-1H-pyrrolo[3,2-b]pyridin-2-yl)methyl)-5-fluorospiro[isoindoline-1,3′-pyrrolidine]-2′,3-dione] | 0.054 | 0.0017
Nc1nc2cc(CN3C(=O)c4cc(F)ccc4[C@]34CCN(CCOC(F)F)C4=O)[nH]c2cc1F [Example 11, (S)-2-((5-Amino-6-fluoro-1H-pyrrolo[3,2-b]pyridin-2-yl)methyl)-1′-(2-(difluoromethoxy)ethyl)-5-fluorospiro[isoindoline-1,3′-pyrrolidine]-2′,3-dione] | 0.81 | 0.02
Nc1nc2cc(CN3C(=O)c4cc(F)ccc4[C@]34CCN(Cc3ncccc3F)C4=O)[nH]c2cc1F [Example 12, (S)-2-((5-Amino-6-fluoro-1H-pyrrolo[3,2-b]pyridin-2-yl)methyl)-5-fluoro-1′-((3-fluoropyridin-2-yl)methyl)spiro[isoindoline-1,3′-pyrrolidine]-2′,3-dione] | 0.43 | 0.0088

Next, values leading:

IC50 (HCT116 WT cells) [µM] | IC50 (HCT116 KO-MTAP cells) [µM] | Compound
0.51 | 0.011 | Nc1nc2cc(CN3C(=O)c4cnccc4[C@]34CCN(Cc3ccc(F)cc3)C4=O)[nH]c2cc1F (single isomer, unassigned) [Example 22]
0.19 | 0.0094 | Cn1cc(C#CCN2CC[C@@]3(C2=O)c2ccc(F)cc2C(=O)N3Cc2cc3nc(N)c(F)cc3[nH]2)cn1 [Example 4, (S)-2-((5-Amino-6-fluoro-1H-pyrrolo[3,2-b]pyridin-2-yl)methyl)-5-fluoro-1′-(3-(1-methyl-1H-pyrazol-4-yl)prop-2-yn-1-yl)spiro[isoindoline-1,3′-pyrrolidine]-2′,3-dione]
0.17 | 0.0057 | N#Cc1ccc(CN2CC[C@@]3(C2=O)c2ccc(F)cc2C(=O)N3Cc2cc3nc(N)c(F)cc3[nH]2)cc1F [Example 5, (S)-4-((2-((5-Amino-6-fluoro-1H-pyrrolo[3,2-b]pyridin-2-yl)methyl)-5-fluoro-2′,3-dioxospiro[isoindoline-1,3′-pyrrolidin]-1′-yl)methyl)-2-fluorobenzonitrile]
0.036 | 0.0017 | Nc1nc2cc(CN3C(=O)c4cc(F)ccc4[C@]34CCN(Cc3cc(F)ccc3F)C4=O)[nH]c2cc1F [Example 7, (S)-2-((5-Amino-6-fluoro-1H-pyrrolo[3,2-b]pyridin-2-yl)methyl)-1′-(2,5-difluorobenzyl)-5-fluorospiro[isoindoline-1,3′-pyrrolidine]-2′,3-dione]
0.53 | 0.015 | Nc1nc2cc(CN3C(=O)c4cc(F)ccc4[C@]34CCN(CC3(CF)CC3)C4=O)[nH]c2cc1F [Example 9, (S)-2-((5-Amino-6-fluoro-1H-pyrrolo[3,2-b]pyridin-2-yl)methyl)-5-fluoro-1′-((1-(fluoromethyl)cyclopropyl)methyl)spiro[isoindoline-1,3′-pyrrolidine]-2′,3-dione]

From patent publication US11939344B2, “Spirocyclic compounds” (ASTRAZENECA AB, priority 2021, dated 2024)
